Data: US20100113610A1, “METHODS FOR CONTROLLING INFLAMMATORY AND IMMUNOLOGICAL DISEASES” (Purdue Research Foundation, priority 2007, published 2010)

Key:
[1] = tested on: α4β7+ mucosal tissue homing FoxP3+ T cells; assay: Intestinal FoxP3+ T cell numbers in mice fed food with or without vitamin A; type: in vivo, mouse; conditions: 6 weeks
Procedure: Regulation of mucosal FoxP3^+ cell numbers by vitamin A in vivo and in vitro. The in vivo effect of vitamin A on numbers of intestinal FoxP3^+ T cells was determined. Adult mice were fed with food with (control mice) or without vitamin A for 6 weeks, and then the numbers of FoxP3^+ T cells in small and large intestine, and mesenteric lymph nodes were determined by flow analysis (FIG. 11A).

[2] = tested on: FoxP3; assay: FoxP3 induction in activated neonatal human cord blood CD4+CD25- naive T cells (RT-PCR, flow cytometry); type: cell-based; conditions: for induction of FoxP3+ T cells by single agent: ATRA 2 nM or TGF-β1 2 ng/ml; for optimal concentration for induction of FoxP3: human cord blood CD4+CD25- T cells
Procedure: All-trans-retinoic acid (ATRA), a major vitamin A metabolite, induces FoxP3 expression in T cells. FoxP3 is the master transcription factor for CD4^+CD25^+ regulatory T cells. […] Neonatal human cord blood CD4^+CD25^− naïve T cells were cultured in a T cell activation condition with IL-2 (25 U/ml) and phytohemagglutinin (PHA, 5 μg/m) in the presence or absence of all-trans retinoic acid (ATRA, 2 nM) for 6 days. Naïve CD4^+CD25^− T cells were activated in the absence and presence of ATRA, and examined for expression of FoxP3 mRNA and protein by RT-PCR analysis (FIG. 1A), flow cytometry analysis (FIG. 1B) and dose-dependent induction of FoxP3 by ATRA (FIG. 1C).
As RARα can be induced in T cells in response to ATRA, the function of this receptor in induction of FoxP3 was examined using an RARα antagonist, Ro41-5253. […] FoxP3 protein expression in CD4 T cells, determined by intracellular staining by PE-labeled anti-FoxP3 antibody, is shown as FACS dot plots (FIG. 3A) and graphs (FIG. 3B). Neonatal human cord blood CD4^+CD25^− T cells were cultured in a T cell activation condition with IL-2 (25 U/ml ) and PHA (5 μg/ml) in the presence and absence of indicated agonists or antagonists for 6 days. The concentrations used to obtain the data were 2 nM (ATRA), 1 μM (Ro41-5253), 5 nM (AM-580), and 10 μM (methoprene acid).
TGF-β is a potent inducer of FoxP3 (Chen et al., 2003, J Exp Med). Therefore, the interaction between ATRA and TGF-β in their effects on FoxP3 expression was examined. […] Neonatal human cord blood CD4^+CD25^− T cells were cultured in a T cell activation condition with IL-2 (100 U/ml) and PHA (5 μg/ml) in the presence and absence of indicated agonists or antagonists for 6 days. Ro41-5253 is a RARα antagonist. […] ATRA was used at 2 nM.

[3] = tested on: RARα; assay: RT-PCR of RAR and RXR mRNA expression in CD4+CD25- T cells activated in ATRA; type: cell-based, human; conditions: ATRA 2 nM, IL-2 + PHA, 6 days; 6 RAR and RXR receptors
Procedure: RARα, RARβ and RARγ are the major receptors that are likely to mediate the function of ATRA. The mRNA expression of RARs and RXRs in freshly isolated CD4^+CD25^+ and CD4^+CD25^− T cells was determined, as well as in CD4^+CD25^−T cells activated in ATRA. Neonatal human cord blood CD4^+CD25^− naïve T cells were cultured in a T cell activation condition with IL-2 (25 U/ml) and PHA (5 μg/ml) in the presence or absence of ATRA (2 nM) for 6 days. Freshly isolated CD4^÷CD25^+ and CD4^+CD25^− cells are shown for comparison. RT-PCR was performed, and a representative set of results out of 4 independent experiments are shown.

[4] = tested on: CD4+CD25- T cells; assay: 3H-thymidine incorporation assay: proliferation and suppression of CD4+CD25- target T cells in co-culture; type: cell-based, human; conditions: treated 6-7 days
Procedure: ATRA-treated T cells are suppressor cells with unique effector molecules. Generally, regulatory T cells are hypo-proliferative and can suppress the proliferation of target T cells (CD4^+CD25^− T cells) in co-culture. It was therefore determined if the ATRA-induced FoxP3^+ cells had these features. […] Freshly isolated CD4^+CD25^− T cells were cultured with ATRA (2 nM), TGF-p31 (2 ng/ml) or ATRA+TGF-β1 in a T cell activation condition (IL-2 +PHA) for 6-7 days. Then, the T cells were co-cultured with CD4^+CD25^− cells for 5 additional days. A 3H-thymidine incorporation assay was performed to assess the proliferation potentials of the cultures.

[5] = tested on: granzymes; assay: Expression of granzyme A, granzyme B and perforin in induced FoxP3+ T cells; type: cell-based, human; conditions: for granzyme A expression in induced FoxP3+ cells: FoxP3+ T cells from cord blood CD4+CD25- T cells
Procedure: Regulatory T cells may use a number of different effector mechanisms to suppress target cells. Granzymes are a class of such effector molecules implicated in regulatory function. […] FoxP3^+ T cells, generated from cord blood CD4^+CD25^− T cells with ATRA, were examined for their expression of granzyme A, granzyme B and perforin. Also included were FoxP3^+T cells, generated with IL-2 (control) or IL-2 (25 U/ml) and TGF-β (2 ng/ml). Expression of granzyme A and B is shown in panel A. Three independent experiments were combined and averages and SEM are shown (panel B).

[6] = tested on: FoxP3; assay: FoxP3 induction in mouse DO11.10 (Rag2-/-) CD4+CD25- T cells; type: cell-based; conditions: for induction of FoxP3 in mouse T cells: irradiated splenocytes, OVA 323-339 peptide, IL-2 100 U/ml
Procedure: It was determined if ATRA could induce FoxP3 in mouse T cells. […] These CD4^+ CD25^− T cells were cultured in a T cell activation condition (irradiated splenocytes with […] of OVA 323-339 antigen peptide and 100 U/ml of IL-2) in the presence or absence of ATRA. […] Other retinoids such as AM-580 (a RARα agonist) and methoprene acid (a RXR agonist) were also tested.

[7] = tested on: FoxP3; assay: Conversion of mouse naive T cells into mucosal tissue homing FoxP3+ T cells with ATRA and cytokines; type: cell-based; conditions: 6-7 days
Procedure: Also provided is a method with which almost all of naïve T cells can be converted into mucosal tissue homing FoxP3^+ T cells by utilizing ATRA and cytokines. Mouse naïve T cells were cultured with ATRA (1-100 nM), IL-2 (10-1000 U/ml) and TGF-β1 (1-100 ng/ml), together with TCR activators (concanavalin A or PHA at 1-10 μg/ml) for 6-7 days. […] This method reproducibly generates 92-99% pure mucosal tissue homing FoxP3^+ T cells.

[8] = tested on: FoxP3; assay: FoxP3 induction in activated neonatal human cord blood CD4+CD25- naive T cells (RT-PCR, flow cytometry); type: cell-based; conditions: very high concentration (20 μM), IL-2 + PHA, 6 days

Molecule: vitamin A
- numbers of α4β7+ mucosal tissue homing FoxP3+ T cells in the large and small intestines ([1]; vitamin A-deficient food versus control food with vitamin A): significantly smaller numbers
- numbers of FoxP3+ T cells in lymph nodes (MLN) ([1]; vitamin A-deficient food versus control food): no reduction

Molecule: CC1=C(/C=C/C(C)=C/C=C/C(C)=C/C(=O)O)C(C)(C)CCC1 [ATRA, All-trans-retinoic acid]
- effect of ATRA added to the culture with TGF-β on FoxP3+ T cell induction ([2]; ATRA 2 nM + TGF-β1 2 ng/ml, IL-2 100 U/ml + PHA, 6 days): enhanced the effect of TGF-β
- induction of FoxP3+ T cells by single agent ([2]; IL-2 100 U/ml + PHA, 6 days): clear effects
- levels of FoxP3 mRNA expression (RT-PCR) ([2]; ATRA 2 nM with IL-2 25 U/ml and PHA, 6 days, versus IL-2 alone): increased compared to IL-2 alone
- FoxP3+ cells at the protein level (flow cytometry) ([2]; ATRA 2 nM with IL-2 and PHA, 6 days, presence versus absence of ATRA): significantly more
- optimal concentration for induction of FoxP3 ([2]; IL-2 + PHA, 6 days): 2 to 10 nM
- RAR and RXR family receptor mRNA expression in response to ATRA [3]: most highly expressed receptor in response to ATRA was RARα
- suppressive activity of treated T cells on CD4+CD25- T cells ([4]; co-cultured 5 additional days): levels similar to that of TGF-β1-treated cells
- proliferation potential of treated T cells (3H-thymidine incorporation) ([4]; compared to fresh CD4+CD25- cells and cultured control cells): low proliferation potential
- granzyme A expression in induced FoxP3+ cells [5]: expressed granzyme A
- granzyme B or perforin-expressing cells among induced FoxP3+ cells ([5]; versus TGF-β induced FoxP3+ cells): Consistently more
- induction of FoxP3 in mouse T cells [6]: induced FoxP3 expression in T cells
- trafficking receptors of mouse FoxP3+ T cells primed in retinoic acid ([6]; mouse DO11.10 T cells): expressed the mucosal tissue homing receptors CCR9 and α4β7
- T cells after culture that were FoxP3+ regulatory T cells expressing the mucosal tissue homing receptor ([7]; ATRA 1-100 nM, IL-2 10-1000 U/ml, TGF-β1 1-100 ng/ml, TCR activators): ~95%
- purity of mucosal tissue homing FoxP3+ T cells reproducibly generated ([7]; ATRA, IL-2, TGF-β1 and TCR activators): 92-99%

Molecule: TGF-β: a potent inducer of FoxP3 (cytokine)
- induction of FoxP3+ T cells by single agent ([2]; IL-2 100 U/ml + PHA, 6 days): clear effects
- granzyme A expression in induced FoxP3+ cells [5]: did not express granzyme A at significant levels

Molecule: CC1(C)CCC(C)(C)c2cc(C(=O)Nc3ccc(C(=O)O)cc3)ccc21 [AM-580]
- induction of FoxP3 by RARα-specific agonist ([2]; AM-580 5 nM, IL-2 + PHA, 6 days): able to induce FoxP3
- optimal concentration for induction of FoxP3 ([2]; IL-2 + PHA, 6 days): 5 nM
- induction of FoxP3 in mouse T cells [6]: good inducer of FoxP3 at low concentrations

Molecule: COC(C)(C)CCCC(C)C/C=C/C(C)=C/C(=O)O (centres unmarked) [methoprene acid]
- induction of FoxP3 in mouse T cells [6]: able to induce FOXP3 only at very high concentrations
- optimal dose for induction of FOXP3 in mouse T cells ([6]; mouse DO11.10 T cells): ~100 µM
- induction of FoxP3 by pan-RXR agonist [8]: only marginal effects

Molecule: CCCCCCCOc1cc2c(cc1/C(C)=C/c1ccc(C(=O)O)cc1)C(C)(C)CCS2(=O)=O [Ro41-5253]
- suppression of the FoxP3+ cell induction effect of ATRA ([2]; Ro41-5253 1 μM, ATRA 2 nM, 6 days): completely suppressed
- blocking of ATRA-induced versus TGF-β-induced FoxP3 induction ([2]; Ro41-5253, ATRA 2 nM, TGF-β1 2 ng/ml): blocked only ATRA-induced but not TGF-β-induced FoxP3 induction
